# Reference: PMC10381309 (Journal of Fungi, 2023)
# How the values were obtained:
# [1] = tested on: Cladophialophora carrionii (CFP 00910); test: Minimum fungicidal concentration determination; type: cell-based
# Method: The MFC was determined as the lowest drug concentration without fungal growth on Sabouraud agar after five days of incubation at 35 °C.
# [2] = tested on: Fonsecaea pedrosoi (CFP 00791); test: NIH Clinical Collection screening for antifungal activity (growth inhibition, OD 530 nm); type: cell-based; details: Fonsecaea pedrosoi, read-out: % Growth Inhibition
# Method: These substances are part of the NIH Roadmap Molecular Libraries Screening Centers Network screening library, a collection of chemically diverse substances in Phase I-III clinical trials. Each substance was initially diluted to 1 mM in DMSO and stored at −20 °C until use. […] The final DMSO concentration corresponded to 0.5% v/v. The inoculum was prepared according to the protocol for filamentous fungi proposed by the European Committee on Antimicrobial Susceptibility Testing—EUCAST, with minor modifications. […] After growth, conidia were suspended in 3 mL of sterile distilled water with 0.1% Tween 20, vortexed, and the concentration adjusted to the 0.5 McFarland scale. The suspension was then diluted 1:10 in order to obtain a final working inoculum at 2–5 × 10^5 CFU/mL. Next, 100 µL of the inoculum was added to each well and the plates incubated at 35 °C for 72–96 h. Negative and positive controls consisted of culture medium alone and drug-free culture medium with the fungal inoculum previously described, respectively. Plates were read using a microplate reader (Epoch, Biotek, Wenusky, VT, USA) with a 530 nm filter to obtain the optical density. All plates were also visually read to confirm the equipment data. A calculation was performed to obtain the percentage of inhibition of fungal growth, according to the formula: (1 − (OD1/OD2)) × 100, where OD1 = optical density of the fungus in the presence of the drug; and OD2 = optical density of the growth control drug-free well.
# [3] = tested on: Fonsecaea monophora (CFP 00911); test: MIC determination (EUCAST, minor modifications); type: cell-based; details: for Selectivity Index (SI): F. monophora
# Method: (§1) Minimum inhibitory concentrations (MICs) were determined using the method proposed by the European Committee on Antimicrobial Susceptibility Testing (EUCAST), with minor modifications. Hit drugs were serially diluted (80 μM to 0.15625 μM) in RPMI 1640 (twice concentrated, pH 7; supplemented with 2% glucose) buffered with MOPS in 96-well plates. The inoculums of all strains were prepared following the EUCAST protocol. Plates were incubated at 35 °C for 72–96 h. The MIC of the NCC substances was determined as the lowest concentration capable of inhibiting 100% of fungal growth when compared to the growth control well. MIC values were determined in duplicate.
# [4] = tested on: Fonsecaea nubica (CFP 00912); test: MIC determination (EUCAST, minor modifications); type: cell-based; details: for Selectivity Index (SI): F. nubica
# Method: as §1
# [5] = tested on: Cladophialophora carrionii (CFP 00910); test: MIC determination (EUCAST, minor modifications); type: cell-based; details: for Selectivity Index (SI): C. carrionii
# Method: as §1
# [6] = tested on: Fonsecaea pedrosoi (CFP 00791); test: MIC determination (EUCAST, minor modifications); type: cell-based; details: for Selectivity Index (SI): F. pedrosoi
# Method: as §1
# [7] = tested on: Phialophora verrucosa (CFP 00937); test: MIC determination (EUCAST, minor modifications); type: cell-based; details: for Selectivity Index (SI): P. verrucosa
# Method: as §1
# [8] = tested on: Exophiala heteromorpha (ATCC 28180); test: MIC determination (EUCAST, minor modifications); type: cell-based; details: for Selectivity Index (SI): E. heteromorpha
# Method: as §1
# [9] = tested on: Rhinocladiela similis (CFP 00790); test: MIC determination (EUCAST, minor modifications); type: cell-based; details: for Selectivity Index (SI): R. similis
# Method: as §1
# [10] = tested on: Exophiala dermatitidis (ATCC 28869); test: MIC determination (EUCAST, minor modifications); type: cell-based; details: for Selectivity Index (SI): E. dermatitidis
# Method: as §1
# [11] = Effect of albendazole on cell viability, MTT assay; type: cell-based; details: after 96 h
# Method: After this analysis, the effect on viability of albendazole on both HaCat (human skin keratinocyte) and Vero (monkey kidney epithelial cell) cells was evaluated by MTT assay. Firstly, the mammalian cells (5 × 10^4/well) were allowed to adhere in 96-well tissue culture plates for 4 h at 37 °C in a 5% CO2 atmosphere. Non-adherent cells were removed by washes with sterile DMEM and the wells refilled with DMEM medium supplemented with 10% FBS. The cells were then incubated with increasing concentrations of albendazole (15.62 to 750 µM) and incubated for additional 24 h and 96 h at 37 °C in a 5% CO2 atmosphere. Subsequently, the culture medium was discharged, and the formation of formazan was measured by adding MTT (5 mg/mL in PBS, 25 µg/well) and incubating the wells for 3 h in the dark at 37 °C. Wells with cells receiving only the culture medium with or without 1% DMSO were also included as positive cellular growth controls. The plates were subsequently centrifuged at 500× g for 8 min, the supernatant was removed, the pellet was dissolved in 200 µL of DMSO, and the absorbance measured in an ELISA reader at 570 nm (SpectraMax Gemini 190, Molecular Devices, CA, USA). The 50% cytotoxicity inhibitory concentration (CC50) was determined by non-linear regression analysis.
# [12] = tested on: Cladophialophora carrionii (CFP 00910); details: C. carrionii; PDA; 7 days, 37 °C; albendazole at ½ MIC
# Method: At the end of the seven days of incubation at 37 °C, the plates were read visually. The aspect of the colonies supplemented with albendazole were compared to those of the positive melanin and inhibition melanin controls, to determine whether the color of the albendazole-supplemented cultures resembled the positive DHN-melanin or the melanin inhibition control. Pictures of the colonies were captured using a Canon EOS Rebel T7+ digital camera.
structure (smiles),measurement,setting,value
CCCSc1ccc2nc(NC(=O)OC)[nH]c2c1 [Albendazole],MFC:MIC Ratio,[1]; C. carrionii,8
same,MFC,[1]; Cladophialophora carrionii,20 µM
same,inhibition at 10 µM,[2],98%
same,Selectivity Index (SI),[3]; CC50 HaCat 96 h / MIC,136.16
same,Selectivity Index (SI),[3]; CC50 Vero 24 h / MIC,603.76
same,Selectivity Index (SI),[3]; CC50 Vero 96 h / MIC,418.49
same,MIC,[3]; Fonsecaea monophora,0.625 µM
same,Selectivity Index (SI),[4]; CC50 HaCat 96 h / MIC,136.16
same,Selectivity Index (SI),[4]; CC50 Vero 24 h / MIC,603.76
same,Selectivity Index (SI),[4]; CC50 Vero 96 h / MIC,418.49
same,MIC,[4]; Fonsecaea nubica,0.625 µM
same,Selectivity Index (SI),[5]; CC50 HaCat 96 h / MIC,34.04
same,Selectivity Index (SI),[5]; CC50 Vero 24 h / MIC,150.94
same,Selectivity Index (SI),[5]; CC50 Vero 96 h / MIC,104.62
same,MIC,[5]; Cladophialophora carrionii,2.5 µM
same,Selectivity Index (SI),[6]; CC50 HaCat 96 h / MIC,68.08
same,Selectivity Index (SI),[6]; CC50 Vero 24 h / MIC,301.88
same,Selectivity Index (SI),[6]; CC50 Vero 96 h / MIC,209.24
same,MIC,[6]; Fonsecaea pedrosoi,1.25 µM
same,Selectivity Index (SI),[7]; CC50 HaCat 96 h / MIC,136.16
same,Selectivity Index (SI),[7]; CC50 Vero 24 h / MIC,603.76
same,Selectivity Index (SI),[7]; CC50 Vero 96 h / MIC,418.49
same,MIC,[7]; Phialophora verrucosa,0.625 µM
same,Selectivity Index (SI),[8]; CC50 HaCat 96 h / MIC,34.04
same,Selectivity Index (SI),[8]; CC50 Vero 24 h / MIC,150.94
same,Selectivity Index (SI),[8]; CC50 Vero 96 h / MIC,104.62
same,MIC,"[8]; Exophiala heteromorpha, ATCC28180",2.5 µM
same,MIC,[9],1.25 µM
same,Selectivity Index (SI),[9]; CC50 HaCat 96 h / MIC,68.08
same,Selectivity Index (SI),[9]; CC50 Vero 24 h / MIC,301.88
same,Selectivity Index (SI),[9]; CC50 Vero 96 h / MIC,209.24
same,Selectivity Index (SI),[10]; CC50 HaCat 96 h / MIC,34.04
same,Selectivity Index (SI),[10]; CC50 Vero 24 h / MIC,150.94
same,Selectivity Index (SI),[10]; CC50 Vero 96 h / MIC,104.62
same,MIC,"[10]; Exophiala dermatitidis, ATCC28869",2.5 µM
same,CC50 at 96 h,"[11]; human, HaCat keratinocyte cells",85.1 µM
same,CC50 at 96 h,"[11]; monkey, Vero kidney epithelial cells",262 µM
same,melanin production,[12],did not observe a decrease in melanin production
